Where “and” joins values, the source holds several entries; their conditions need not be identical. Equal entries are not always repeated. Toxic doses and inconclusive results are not listed. The calls were made as follows: active = survival T/C of 150% or more; inactive = T/C below 125% in these data.
Tested on: P388 leukemia ip, CD2F1 mice, survival T/C
Test: NCI In Vivo Anticancer Drug Screen. Data for tumor model P388 Leukemia (intraperitoneal) in CD2F1 (CDF1) mice
Conditions: endpoint: median survival time, higher = longer survival
Procedure, shortened: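 Mice carrying the transplanted tumor received test compound or vehicle. Survival was recorded in each group, and the value is the treated-group measurement divided by that of the vehicle-treated control group.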

[1] = dose: 50.0 mg/kg/injection, schedule: Q01DX009 (ip), vehicle: saline with Tween-80
[2] = dose: 6.25 mg/kg/injection, schedule: Q01DX009 (ip), vehicle: Klucel (hydroxypropylcellulose) (HPC)
[3] = dose: 12.5 mg/kg/injection, schedule: Q01DX009 (ip), vehicle: Klucel (hydroxypropylcellulose) (HPC)
[4] = dose: 25.0 mg/kg/injection, schedule: Q01DX009 (ip), vehicle: Klucel (hydroxypropylcellulose) (HPC)
[5] = dose: 60.0 mg/kg/injection, schedule: Q01DX005 (ip), vehicle: Klucel (hydroxypropylcellulose) (HPC)
[6] = dose: 120.0 mg/kg/injection, schedule: Q01DX005 (ip), vehicle: Klucel (hydroxypropylcellulose) (HPC)
[7] = dose: 240.0 mg/kg/injection, schedule: Q01DX005 (ip), vehicle: Klucel (hydroxypropylcellulose) (HPC)
[8] = dose: 50.0 mg/kg/injection, schedule: Q01DX009 (ip), vehicle: Klucel (hydroxypropylcellulose) (HPC)
[9] = dose: 100.0 mg/kg/injection, schedule: Q01DX009 (ip), vehicle: Klucel (hydroxypropylcellulose) (HPC)
[10] = dose: 60.0 mg/kg/injection, schedule: Q01DX005 (ip), vehicle: saline with Tween-80
[11] = dose: 120.0 mg/kg/injection, schedule: Q01DX005 (ip), vehicle: saline with Tween-80
[12] = dose: 240.0 mg/kg/injection, schedule: Q01DX005 (ip), vehicle: saline with Tween-80

Measured: T/C

CCCCCCCCCCCCCCCCCC(=O)CC(=O)C(F)(F)F (tested in a mixture with another compound)
inactive: [1] 91 % of control | dose: 100.0 mg/kg/injection, schedule: Q01DX009 (ip), vehicle: saline with Tween-80 92 % of control

COc1cc(O)cc2c1CCC(c1ccccc1)O2 (configuration not stated)
inactive: dose: 1.8 mg/kg/injection, schedule: Q01DX005 (ip), vehicle: Klucel + Tween-80 107 % of control | dose: 3.5 mg/kg/injection, schedule: Q01DX005 (ip), vehicle: Klucel + Tween-80 107 % of control | dose: 7.0 mg/kg/injection, schedule: Q01DX005 (ip), vehicle: Klucel + Tween-80 97 % of control | dose: 14.0 mg/kg/injection, schedule: Q01DX005 (ip), vehicle: Klucel + Tween-80 100 % of control

CN(CCN(C)C(=S)SCc1ccccc1)C(=S)SCc1ccccc1
inactive: [2] 100 % of control | [3] 116 % of control | [4] 105 % of control

C1CN(/N=N/N2CCC2)C1
inactive: dose: 6.25 mg/kg/injection, schedule: Q01DX005 (ip), vehicle: Klucel (hydroxypropylcellulose) (HPC) 98 % of control | dose: 12.5 mg/kg/injection, schedule: Q01DX005 (ip), vehicle: Klucel (hydroxypropylcellulose) (HPC) 100 % of control | dose: 25.0 mg/kg/injection, schedule: Q01DX005 (ip), vehicle: Klucel (hydroxypropylcellulose) (HPC) 102 % of control

O=C(Nc1c(Cl)cccc1Cl)OCc1ccc2c(c1)OCO2
inactive: [5] 92 % of control | [6] 90 % of control | [7] 90 % of control

Cc1cc(C)c(C#N)c(=O)[nH]1
inactive: dose: 12.5 mg/kg/injection, schedule: Q04DX003 (ip), vehicle: saline with Tween-80 97 % of control | dose: 25.0 mg/kg/injection, schedule: Q04DX003 (ip), vehicle: saline with Tween-80 103 % of control | dose: 50.0 mg/kg/injection, schedule: Q04DX003 (ip), vehicle: saline with Tween-80 105 % of control | dose: 100.0 mg/kg/injection, schedule: Q04DX003 (ip), vehicle: saline with Tween-80 103 % of control

CCN(CC)C(=S)S[Se](SC(=S)N(CC)CC)(SC(=S)N(CC)CC)SC(=S)N(CC)CC
inactive: [3] 103 % of control | [4] 100 % of control | [8] 97 % of control | [9] 104 % of control

CC(C)(C)OC(=O)NC(Cc1ccccc1)C(=O)O (configuration not stated)
inactive: [2] 101 % of control and 105 % of control | [3] 107 % of control | [4] 100 % of control and 88 % of control | [8] 111 % of control and 88 % of control | [9] 110 % of control and 97 % of control | dose: 200.0 mg/kg/injection, schedule: Q01DX009 (ip), vehicle: Klucel (hydroxypropylcellulose) (HPC) 107 % of control and 97 % of control

C=CCNc1nc2c(s1)c(C)c(O)c1ccccc12
inactive: [10] 93 % of control | [11] 96 % of control | [12] 106 % of control

O=C(O)/C(Cl)=C(Cl)\C=N\Nc1ccccc1
inactive: dose: 25.0 mg/kg/injection, schedule: Q04DX002 (ip), vehicle: saline with Tween-80 100 % of control | dose: 50.0 mg/kg/injection, schedule: Q04DX002 (ip), vehicle: saline with Tween-80 102 % of control | dose: 100.0 mg/kg/injection, schedule: Q04DX002 (ip), vehicle: saline with Tween-80 100 % of control

COc1ccc(C(CC(C)=O)c2cc3c(cc2OC(C)=O)OCO3)cc1 (configuration not stated)
inactive: [10] 97 % of control | [11] 103 % of control | [12] 99 % of control

CN(C(=S)S(C)(=O)=O)c1ccccc1
inactive: dose: 3.12 mg/kg/injection, schedule: Q01DX009 (ip), vehicle: Klucel (hydroxypropylcellulose) (HPC) 102 % of control | [2] 100 % of control | [3] 86 % of control

CC(O)(C#Cc1ccccc1)c1nc2ccccc2s1 (configuration not stated)
inactive: [5] 101 % of control | [6] 101 % of control | [7] 100 % of control

N=C(N)SCc1cccc(C(=O)O)c1
inactive: dose: 50.0 mg/kg/injection, schedule: Q01DX005 (ip), vehicle: Klucel (hydroxypropylcellulose) (HPC) 110 % of control | dose: 100.0 mg/kg/injection, schedule: Q01DX005 (ip), vehicle: Klucel (hydroxypropylcellulose) (HPC) 105 % of control | dose: 200.0 mg/kg/injection, schedule: Q01DX005 (ip), vehicle: Klucel (hydroxypropylcellulose) (HPC) 96 % of control

COc1cc(NS(=O)(=O)c2ccccc2)c2nc3ccc(Cl)cc3nc2c1
inactive: [5] 96 % of control | [6] 90 % of control | [7] 89 % of control

O=C(CCCO)c1nc2ccccc2s1
inactive: [5] 106 % of control | [6] 101 % of control | [7] 100 % of control

ClC1=C(Cl)C2(Cl)C3C(c4cc(Br)c(Br)cc4C4C3C3(Cl)C(Cl)=C(Cl)C4(Cl)C3(Cl)Cl)C1(Cl)C2(Cl)Cl (configuration not stated)
inactive: dose: 50.0 mg/kg/injection, schedule: Q01DX009 (ip), vehicle: saline 101 % of control | dose: 100.0 mg/kg/injection, schedule: Q01DX009 (ip), vehicle: saline 106 % of control | dose: 200.0 mg/kg/injection, schedule: Q01DX009 (ip), vehicle: saline 102 % of control

CC(C)CCCCCCCCCCCCC(=O)NCC(=O)NC1C(O)C(O)C(Nc2ncnc3nc[nH]c23)C(O)C1O (configuration not stated)
inactive: dose: 0.5 mg/kg/injection, schedule: Q01DX009 (ip), vehicle: other 105 % of control | dose: 1.0 mg/kg/injection, schedule: Q01DX009 (ip), vehicle: other 101 % of control | dose: 2.0 mg/kg/injection, schedule: Q01DX009 (ip), vehicle: other 91 % of control | dose: 4.0 mg/kg/injection, schedule: Q01DX009 (ip), vehicle: other 91 % of control | dose: 8.0 mg/kg/injection, schedule: Q01DX009 (ip), vehicle: other 101 % of control | dose: 16.0 mg/kg/injection, schedule: Q01DX009 (ip), vehicle: other 95 % of control | dose: 32.0 mg/kg/injection, schedule: Q01DX009 (ip), vehicle: other 90 % of control

C=C(C)C(=O)Nc1ccc(NS(=O)(=O)c2ccc(C(C)CC)cc2)c(O)c1 (configuration not stated)
inactive: dose: 50.0 mg/kg/injection, schedule: Q01DX009 (ip), vehicle: saline + alcohol 101 % of control | dose: 100.0 mg/kg/injection, schedule: Q01DX009 (ip), vehicle: saline + alcohol 106 % of control | dose: 200.0 mg/kg/injection, schedule: Q01DX009 (ip), vehicle: saline + alcohol 106 % of control

CCc1nc(N)nc(N)c1-c1ccc(N2CCNCC2)c([N+](=O)[O-])c1
inactive: [10] 106 % of control | [11] 112 % of control

CC1=C(c2ccccc2)OS(=O)(=O)NC1=O
inactive: dose: 25.0 mg/kg/injection, schedule: Q01DX009 (ip), vehicle: water 114 % of control | dose: 50.0 mg/kg/injection, schedule: Q01DX009 (ip), vehicle: water 104 % of control | dose: 100.0 mg/kg/injection, schedule: Q01DX009 (ip), vehicle: water 106 % of control | dose: 200.0 mg/kg/injection, schedule: Q01DX009 (ip), vehicle: water 103 % of control | dose: 400.0 mg/kg/injection, schedule: Q01DX009 (ip), vehicle: water 113 % of control

COc1cc(/C=C/C(=O)CC(=O)/C=C/c2ccc(O)c(OC)c2)ccc1O
inactive: dose: 6.25 mg/kg/injection, schedule: Q01DX009 (ip), vehicle: saline with Tween-80 103 % of control | dose: 12.5 mg/kg/injection, schedule: Q01DX009 (ip), vehicle: saline with Tween-80 100 % of control | dose: 25.0 mg/kg/injection, schedule: Q01DX009 (ip), vehicle: saline with Tween-80 100 % of control | [1] 94 % of control

From PubChem BioAssay AID330 (DTP/NCI, 2004)
